Test results from patent US20070078127A1, “Control of arthropods in animals” (AVENTIS CROPSCIENCE S.A., priority 1999, published 2007).

Legend:
[1] = tested on: cat fleas (Ctenocephalides felis); assay: control of flea on cat; format: in vivo; settings: cats, 20 mg/kg, 30 mg/mL in 1:1 dimethyl sulfoxide/corn oil; counts versus placebo at 1, 9, 16, 23, 30 days; satisfactory in any of the three areas, for a period ranging from eight to thirty days
Excerpt: (§1) Cats are only infested with fleas.

[2] = tested on: cat fleas (Ctenocephalides felis); assay: control of flea on dog; format: in vivo; settings: dogs, 10 mg/kg, 30 mg/mL in 1:1 dimethyl sulfoxide/corn oil; counts versus placebo at 1, 9, 16, 23, 30 days; satisfactory in any of the three areas, for a period ranging from eight to thirty days
Excerpt: as §1

[3] = tested on: ticks (Rhipicephalus sanguineus); assay: control of tick on dog; format: in vivo; settings: dogs, 10 mg/kg, 30 mg/mL in 1:1 dimethyl sulfoxide/corn oil; counts versus placebo at 1, 9, 16, 23, 30 days; satisfactory in any of the three areas, for a period ranging from eight to thirty days
Excerpt: as §1

[4] = side-effects in treated dogs and cats; settings: dogs 10 mg/kg, cats 20 mg/kg; period ranging from eight to thirty days
Protocol: The compounds 1-(2,6-dichloro-4-trifluoromethylphenyl)-3-cyano-4-trifluromethylthio-5-hydroxypyrazole, 1-(2,6-dichloro-4-trifluoromethylphenyl)-3-cyano-4-trifluoromethylsulfinyl-5-hydroxypyrazole and 1-(2,6-dichloro-4-trifluoromethylphenyl)-3-cyano-4-trifluoromethylsulfonyl-5-hydroxypyrazole are formulated as 30 mg/mL formulations in a 1:1 volume/volume solution of dimethyl sulfoxide and corn oil. Using this formulation, mixed breed dogs and cats are treated at a rate of 10 mg of the compound per kg (mg/kg)of body weight of the dog and 20 mg/kg of the cat treated. The animals are fasted for at least 8 hours prior to treatment, fed half of the daily ration immediately prior to treatment, then allowed access to the remainder of the daily ration immediately following treatment.
All dogs are infested with cat fleas (Ctenocephalides felis) and with ticks (Rhipicephalus sanguineus) 1 day prior to administration of the compound. Cats are only infested with fleas. […] At 1, 9, 16, 23 and 30 days after treatment the control of fleas and ticks in treated dogs and cats is determined versus a group of infested dogs and cats which receive a placebo consisting of a 1:1 volume/volume solution of dimethyl sulfoxide and corn oil. To determine the efficacies of the compounds, the arthropods are combed from the animnals and counted.

Structure (SMILES) | control of flea on cat [1] | control of flea on dog [2] | control of tick on dog [3] | side-effect [4]
N#Cc1nn(-c2c(Cl)cc(C(F)(F)F)cc2Cl)c(O)c1SC(F)(F)F [Compound 1-1, 1-(2,6-dichloro-4-trifluoromethylphenyl)-3-cyano-4-trifluoromethylsulfenyl-5-hydroxypyrazole] | Satisfactory results | Satisfactory results | Satisfactory results | –
N#Cc1nn(-c2c(Cl)cc(C(F)(F)F)cc2Cl)c(O)c1S(=O)(=O)C(F)(F)F [Compound 1-5, 1-(2,6-dichloro-4-trifluoromethylphenyl)-3-cyano-4-trifluoromethylsulfonyl-5-hydroxypyrazole] | Satisfactory results | Satisfactory results | Satisfactory results | –
CCOc1c(SC(F)(F)F)c(C#N)nn1-c1c(Cl)cc(C(F)(F)F)cc1Cl [Compound 3-1, 1-(2,6-dichloro-4-trifluoromethylphenyl)-3-cyano-4-trifluoromethylsulfenyl-5-ethoxypyrazole] | Satisfactory results | Satisfactory results | Satisfactory results | –
CN(C)C(=O)Oc1c(S(=O)(=O)C(F)(F)F)c(C#N)nn1-c1c(Cl)cc(C(F)(F)F)cc1Cl [Compound 19-1, 1-(2,6-dichloro-4-trifluorometylphenyl) -3-cyano-4-trifluormethylsulfonyl-5-N,N-dimethylcarbamyloxypyrazole] | Satisfactory results | Satisfactory results | Satisfactory results | without any significant side-effect
N#Cc1nn(-c2c(Cl)cc(C(F)(F)F)cc2Cl)c(O)c1[S+]([O-])C(F)(F)F (centres unmarked) [Compound 1-3, 1-(2,6-dichloro-4-trifluoromethylphenyl)-3-cyano-4-trifluoromethylsulfinyl-5-hydroxypyrazole] | Satisfactory results | Satisfactory results | Satisfactory results | –
N#Cc1nn(-c2c(Cl)cc(C(F)(F)F)cc2Cl)c(O)c1SC(F)(F)Cl [Compound 1-9, 1-(2,6-dichloro-4-trifluoromethylphenyl)-3-cyano-4-chlorodifluoromethylsulfenyl-5-hydroxypyrazole] | Satisfactory results | Satisfactory results | Satisfactory results | without any significant side-effect
CC(C)(C)C(=O)Oc1c(SC(F)(F)F)c(C#N)nn1-c1c(Cl)cc(C(F)(F)F)cc1Cl [Compound 3-10, 1-(2,6-dichloro-4-trifluoromethylphenyl)-3-cyano-4-trifluoromethylsulfenyl-5-trimethylacetoxypyrazole] | Satisfactory results | Satisfactory results | Satisfactory results | –
